Experimental data taken from patent publication US20120294808A1, “Fluorescent Analogs of Neurotransmitters, Compositions Containing the Same and Methods of Using the Same” (UNIVERSITY OF MIAMI, priority 2009, published 2012).
“And” between values parts separate entries of the source, which are not always exact repeats. Equal entries are not always repeated. “Also recorded” adds a separate entry of the source.

Columns and labels:
[1] = system: dissociated e19 chick brain cells; assay: Example 4 uptake in brain cells (microwell plate assay and/or live cell confocal imaging, 405 nm laser); type: cell-based; conditions: 10 μM to 100 μM; absence of monoamine reuptake inhibitors
Procedure: Stock solutions of the compounds shown below (UM001-UM005, 8, 9 & 12A from Example 2) were used to produce compositions with final concentrations ranging from 10 μM to 100 μM. The compositions were then contacted with dissociated e19 chick brain cells, irradiated with a 405 nm laser, and imaged using confocal microscopy.

[2] = Optical spectroscopy (UV-vis and fluorescence) of the stilbazolium emitter library; type: physicochemical
Procedure: UV-vis spectroscopy was conducted to evaluate the absorption and emission spectra for each of the thirty-two emitters.

[3] = system: dissociated e19 chick brain cells; assay: 96-microwell plate uptake screen, with and without indatraline pretreatment; type: cell-based; conditions: pretreated with indatraline, a monoamine reuptake inhibitor
Procedure: The native fluorescence of the emitters enables direct detection of their uptake in dissociated e19 chick brain cells in a convenient 96-microwell plate format. This method enables screening for activity against multiple cell types and transporters including MATs and OCTs without the use of radioactive compounds. Solutions of 11A-18D were added to cell culture media to produce an emitter concentration of 100 μM. The incubation time used was 10 min. The fluorphore solution was removed, fresh media added and the plate immediately analyzed by microwell plate reader. Given the broad range of absorption and emission wavelengths, excitation varied from 355 nm to 500 nm with emission collected at +100 nm to +150 nm.
From this initial assay, it was possible to determine whether a compound associates with the cultured cells; however, it was not clear whether a particular compound was actively transported into cells or simply interacts with the cell membrane. The monoamine transporter (MAT) reuptake inhibitor, indatraline, was utilized to provide some insight into what mechanisms of cellular uptake are at play. Dissociated brain cells were pretreated with indatraline followed by each of the twelve emitters identified from the results shown in FIG. 5.

hNET = target: T1, hNET (Homo sapiens, UniProt P23975); assay: Time-lapse confocal fluorescence microscopy of transporter-expressing HEK-293 cells (hNET); type: cell-based; conditions: HEK-293 hNET, 10 μM to 100 μM, images at 10 sec intervals
T1 construct: expressed in transfected cells
From the text: (§1) HEK-293 cells stably expressing hDAT, hNET and hSERT were provided by Prof. R. Blakely (See, e.g., J. W. Schwartz, R. D. Blakely and L. J. DeFelice, J. Biol. Chem., 2003, 278, 9768.) and cultured on 35 mm dishes with a coverslip imaging window for confocal microscopy. […] Laser intensity and gain were not altered for subsequent images captured at 10 sec intervals. Representative images are shown in FIG. 7 together with intensity profiles captured from cell bodies.

hDAT = target: T2, hDAT (Homo sapiens, UniProt Q01959); assay: Time-lapse confocal fluorescence microscopy of transporter-expressing HEK-293 cells (hDAT); type: cell-based; conditions: HEK-293 hDAT, 10 μM to 100 μM, images at 10 sec intervals
T2 construct: expressed in transfected cells
From the text: as §1

hSERT = target: T3, hSERT (Homo sapiens, UniProt P31645); assay: Time-lapse confocal fluorescence microscopy of transporter-expressing HEK-293 cells (hSERT); type: cell-based; conditions: HEK-293 hSERT, 10 μM to 100 μM, images at 10 sec intervals
T3 construct: expressed in transfected cells
From the text: as §1

[4] = system: live brainstem and cerebellum sections from e19 chicks; assay: Confocal imaging of live brain explant sections, with and without desipramine; set-up: species or system chick; conditions: for distribution in live brain sections: 405 nm excitation, cerebellum and brainstem
From the text: This distribution is consistent with the behavior of these probes towards MAT-expressing HEK293 cells. The wider distribution of 13A may be due to binding to multiple transporter types, wh[…] may be limited to NET or DAT expressing catecholaminergic cells. […] Image overlays from 100 μm sagittal (FIG. 8A) and transverse (FIG. 8B) sections reveal that both probes are associated with cells of chick mesencephalon and metencephalon. The fluorophores were excited by laser at 405 nm. […] The scale bars for FIG. 8 are as follows: 8A & 8B=100 μm; C & D=10 μm; and E & F=50 μm).

[5] = Optical properties (absorption and emission spectra) of carbostyril probes 1-4; type: physicochemical; conditions: for small additional emission peak: acidic solutions, protonated form
From the text: The optical properties of 1-4 were investigated in order to determine their suitability as fluorescent probes. Absorption spectra were obtained in neutral, acidic and basic solutions. […] Addition of acetic acid effected a hypsochromic shift (λmax=335 nm); the addition of triethylamine results in pronounced bathchromic (λmax=370 nm) and hyperchromic shifts. The linear combination of the absorption spectra with excess acid and excess base nearly perfectly overlaps with the spectrum obtained at pH 7.2 (FIG. 1). Therefore, it was determined that at near neutral pH (between approximately 6.5-7.5pH), both protonated and unprotonated species exist at roughly equal concentrations.
Thus, it was determined that in neutral and basic solutions, 1-4 emit from a deprotonated excited state species. Emission in acidic solutions is dominated by the deprotonated species as well. In the case of 3 and 4 a small peak at 380 nm was observed, which is likely due to photoemission from the protonated form of these molecules. While 5HT itself is fluorescent, single photon excitation of 5HT requires specialized optics and a UV excitation source (λmax,abs=277 nm). Furthermore, the autofluorescence of biological samples is also quite high in the UV region. The longer wavelength absorption of 1-4 allows selective photoexcitation of these fluorophores in the presence of aromatic amino acid residues and nucleobases.

[6] = system: Mixed cell cultures of neurons and astroglia isolated from the brain stems of E14 chick embryos; assay: Microwell plate reader cellular uptake assay, with and without clomipramine (SRI) pretreatment; type: cell-based; conditions: for emission response (cellular uptake): λex=355 nm, λem=444 nm, versus controls A and B; for effect of Clomipramine pretreatment on uptake: pre-treatment with Clomipramine, a serotonin reuptake inhibitor
From the text: Mixed cell cultures of neurons and astroglia isolated from the brain stems of E14 chick embryos were exposed to solutions of 1-4. Serotonergic cells are clustered in the raphe nucleus (RN) located along the midline of the brain stem; they project into other regions of the brain including the hypothalamus, the olfactory bulb, cortex and cerebellum. […] The inherent fluorescence of the carbostyril core enabled direct detection of their cellular uptake utilizing a microwell plate reader (λex=355 nm, λem=444 nm).
It was believed that several modes of interaction are possible between the fluorescent probes and the cultured cells including specific interactions such as active transport via neurotransmitter transporters, or binding to neurotransmitter receptors, as well as non-specific interactions such as insertion into the cell membrane.

[7] = system: Neurons and astroglia isolated from E14 chick brainstems; assay: Live confocal imaging of cultured cells exposed to probe (405 nm excitation); type: cell-based
Procedure: In other words, whether the probe localized to the cell membrane, implying binding to transporters or receptors, or whether the probe was internalized, implying active transport into the cytosol. Neurons and astroglia isolated from E14 chick brainstems were grown on poly-L-lysine and laminin treated coverslips affixed to 35 mm culture dishes enabling live imaging of the cells in culture media. […] Cells were exposed to the probe solution for one minute, the media was then changed and additional images were captured. […] During the course of the imaging experiments, some photobleaching was observed.

[8] = system: monoamine oxidases (MAOs); assay: Conversion of profluorescent HNETP to HNEP+ in cell culture; type: cell-based
From the text: In addition, it has been discovered that reduction of HNEP+ (UM006) results in the formation of HNETP (UM007). This provides a profluorescent option for screening pharmaceutical targets in vivo, which allows for the assessment of bioavailability of compounds in model organisms. In particular, the long wavelength absorption and emission of HNEP+ are not present in HNETP due to the loss of conjugation and the cationic pyridinium functionality. […] This reflects two distinct processes: accumulation of HNETP in the cells and the metabolism of HNETP to HNEP+ by MAOs. Inhibitors of MAO are important for several diseases including Parkinsons Disease as well as hypertensive disorders.

[9] = Solubility of probes 1-4 in methanol and PBS; type: physicochemical; conditions: phosphate-buffered saline (PBS), aqueous buffer; read-out: concentration at which soluble in PBS
From the text: The synthesis of analogs 2-4 followed a similar route: reaction of 5 with chloroethylamine followed by deprotection of the 6-hydroxy group produced 2; 3 and 4 resulted from reaction of 5 with bromoethanol and bromopropylbenzene respectively. In all cases the N-linked isomer was isolated.

T1 sequence (P23975 whole entry): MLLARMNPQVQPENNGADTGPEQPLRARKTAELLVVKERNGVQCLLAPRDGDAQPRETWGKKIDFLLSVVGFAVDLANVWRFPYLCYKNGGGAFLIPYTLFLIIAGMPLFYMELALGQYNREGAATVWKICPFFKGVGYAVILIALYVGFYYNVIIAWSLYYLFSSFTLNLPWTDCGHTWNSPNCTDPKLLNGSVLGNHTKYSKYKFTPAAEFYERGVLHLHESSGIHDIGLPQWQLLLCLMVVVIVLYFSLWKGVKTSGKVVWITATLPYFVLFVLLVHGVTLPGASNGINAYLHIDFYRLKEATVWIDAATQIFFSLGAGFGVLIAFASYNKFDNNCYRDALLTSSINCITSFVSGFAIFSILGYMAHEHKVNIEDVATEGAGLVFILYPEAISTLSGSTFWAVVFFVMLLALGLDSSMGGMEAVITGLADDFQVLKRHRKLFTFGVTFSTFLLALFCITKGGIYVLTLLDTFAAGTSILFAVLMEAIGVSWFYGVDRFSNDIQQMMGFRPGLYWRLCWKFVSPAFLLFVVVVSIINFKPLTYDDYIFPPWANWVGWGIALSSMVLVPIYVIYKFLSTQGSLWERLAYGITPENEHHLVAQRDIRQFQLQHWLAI
T3 sequence (P31645 whole entry): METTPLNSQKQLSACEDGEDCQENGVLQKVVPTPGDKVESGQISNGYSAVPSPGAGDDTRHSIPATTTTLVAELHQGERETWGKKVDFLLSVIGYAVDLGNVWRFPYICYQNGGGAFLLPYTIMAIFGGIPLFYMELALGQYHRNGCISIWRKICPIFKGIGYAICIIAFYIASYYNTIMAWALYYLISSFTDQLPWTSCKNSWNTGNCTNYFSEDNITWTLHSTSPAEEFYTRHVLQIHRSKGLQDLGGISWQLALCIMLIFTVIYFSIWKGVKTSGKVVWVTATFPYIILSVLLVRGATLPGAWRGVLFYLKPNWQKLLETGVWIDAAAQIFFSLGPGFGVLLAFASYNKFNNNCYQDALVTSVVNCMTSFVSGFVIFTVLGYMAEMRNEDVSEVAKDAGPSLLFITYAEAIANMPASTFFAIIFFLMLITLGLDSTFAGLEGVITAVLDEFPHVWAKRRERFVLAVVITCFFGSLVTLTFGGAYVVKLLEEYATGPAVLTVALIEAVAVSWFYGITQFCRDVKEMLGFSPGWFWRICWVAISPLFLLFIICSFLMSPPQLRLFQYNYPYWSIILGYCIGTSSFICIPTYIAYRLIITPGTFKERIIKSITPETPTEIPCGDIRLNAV
T2 sequence (Q01959 whole entry): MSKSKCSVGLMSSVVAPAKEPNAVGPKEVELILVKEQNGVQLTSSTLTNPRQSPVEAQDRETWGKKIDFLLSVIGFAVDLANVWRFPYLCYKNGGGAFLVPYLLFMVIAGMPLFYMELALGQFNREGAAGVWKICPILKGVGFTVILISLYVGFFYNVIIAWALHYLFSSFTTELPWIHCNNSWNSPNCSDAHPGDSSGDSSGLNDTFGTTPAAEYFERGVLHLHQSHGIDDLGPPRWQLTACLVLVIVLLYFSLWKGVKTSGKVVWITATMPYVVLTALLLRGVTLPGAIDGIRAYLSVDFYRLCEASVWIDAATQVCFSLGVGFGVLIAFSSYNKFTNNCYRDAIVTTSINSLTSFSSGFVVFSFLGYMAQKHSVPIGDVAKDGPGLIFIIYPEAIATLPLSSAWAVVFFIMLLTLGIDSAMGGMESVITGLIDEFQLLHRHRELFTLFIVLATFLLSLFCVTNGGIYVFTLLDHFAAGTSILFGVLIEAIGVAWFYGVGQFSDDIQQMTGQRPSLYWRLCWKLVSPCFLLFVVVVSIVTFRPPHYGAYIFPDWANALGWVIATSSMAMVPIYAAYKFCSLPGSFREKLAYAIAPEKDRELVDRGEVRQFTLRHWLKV

## CN(C)CCn1c(=O)cc(C(F)(F)F)c2ccc(O)cc21 [Compound 8]
[1]
  uptake in dissociated chick brain cells: little or no uptake

## C[n+]1ccc(/C=C/c2ccc3ccccc3c2)cc1.[I-] [Compound 13A, (E)-1-Methyl-4-[2-(2-naphthalenyl)ethenyl]-pyridinium iodide]
[2]; versus acridine orange, Hoescht 33258 and DAPI
  overall brightness (ε·Φem): compares favorably
[3]
  emission response after indatraline pretreatment: affected by indatraline pretreatment
hNET
  accumulation / transport in cells expressing NET: did not accumulate; also recorded: does not appear to be transported
hDAT
  accumulation / transport in cells expressing DAT: did not accumulate; also recorded: does not appear to be transported
hSERT
  accumulation / transport in cells expressing SERT: did not accumulate; also recorded: does not appear to be transported
[4]
  distribution in live brain sections: widely distributed in both the cerebellum and pons

## COc1ccc(/C=C/c2cc[n+](C)cc2)cc1 [Compound 12A]
[2]; 10 μM solutions
  absorption maxima: 358 nm
  emission maxima: 475 nm and 490 nm
[3]
  emission response after indatraline pretreatment: maintained high responses even after indatraline pretreatment
[1]
  uptake in dissociated chick brain cells: accumulated

## O=c1cc(C(F)(F)F)c2ccc(O)cc2n1CCO [Compound 3]
[5]
  small additional emission peak: 380 nm
[6]
  emission response (cellular uptake): did not differ significantly from the controls

## NCCn1c(=O)cc(C(F)(F)F)c2ccc(O)cc21 [Compound 1]
[6]
  effect of Clomipramine pretreatment on uptake: significantly reduced
  emission response (cellular uptake): high emission response
[7]; one minute exposure, 405 nm excitation
  cell binding / illumination: bound to and illuminated most healthy cells
[7]; without antifade reagents
  photostability during imaging: sufficiently stable to capture multiple images over 10 mins
[7]; z-stacks, one minute exposure
  subcellular localization of probe: localized internally after only one minute of exposure; also recorded: localized to the interior of both astroglia and neurons

## NCCc1c[nH]c2ccc(O)cc12 [Compound 5HT, 5-hydroxytryptamine, reference compound]
[5]; 5HT comparison
  λmax,abs: 277 nm

## CN1CC=C(/C=C/c2ccc3cc(O)ccc3c2)CC1 [HNETP]
[8]
  metabolic conversion by MAOs: convert HNETP to HNEP+ in cell culture

## CN(C)CCn1c(=O)cc(C(F)(F)F)c2ccc(O)cc21 [Compound 2]
[6]
  emission response (cellular uptake): did not differ significantly from the controls

## CN(C)CCN1C(=O)c2cccc3c(N)ccc(c23)C1=O [Compound 9]
[1]
  uptake in dissociated chick brain cells: little or no uptake

## C[n+]1ccc(/C=C/c2ccc3cc(O)ccc3c2)cc1 [Compound 14A, (E)-4-[2-(6-hydroxy-2-naphthalenyl)ethenyl]-1-methyl-pyridinium iodide]
hNET
  accumulation / transport in cells expressing NET: preferentially accumulates in cells expressing NET; also recorded: rapidly accumulated
hSERT
  accumulation / transport in cells expressing SERT: does not differ substantially from the control untransfected HEK cells
[4]
  distribution in live brain sections: appears in distinct cell groupings along the cerebellar gyri and around the midline of the brainstem
[4]; pretreatment with desipramine, a norepinephrine reuptake inhibitor
  effect of desipramine pretreatment on accumulation: limited the accumulation

## O=c1cc(C(F)(F)F)c2ccc(O)cc2n1CCCc1ccccc1 [Compound 4]
[9]
  solubility: < 50 µM
[5]
  small additional emission peak: 380 nm
[6]
  effect of Clomipramine pretreatment on uptake: significantly reduced
  emission response (cellular uptake): to a lesser extent
